± gives the expanded uncertainty stated by the source.
Test: xn = mol fraction of the nth substance listed
Conditions: 101 kPa, Liquid, Vibrating tube method

NCCN [ethane-1,2-diamine] + O
Conditions	mass density [kg/m3]
278.15 K, x1 = 0.9678	913.98 ± 0.51
279.15 K, x1 = 0.002	999.82 ± 0.5
279.15 K, x1 = 0.0033	999.7 ± 0.5
279.15 K, x1 = 0.0047	999.59 ± 0.5
279.15 K, x1 = 0.0072	999.38 ± 0.5
279.15 K, x1 = 0.009	999.26 ± 0.5
279.15 K, x1 = 0.0123	999.01 ± 0.5
279.15 K, x1 = 0.0222	998.54 ± 0.5
279.15 K, x1 = 0.0436	998.41 ± 0.5
279.15 K, x1 = 0.0609	999.05 ± 0.5
279.15 K, x1 = 0.0827	1000.47 ± 0.5
280.15 K, x1 = 0.002	999.78 ± 0.5
280.15 K, x1 = 0.0033	999.65 ± 0.5
280.15 K, x1 = 0.0047	999.54 ± 0.5
280.15 K, x1 = 0.0072	999.33 ± 0.5
280.15 K, x1 = 0.009	999.2 ± 0.5
280.15 K, x1 = 0.0123	998.93 ± 0.5
280.15 K, x1 = 0.0222	998.41 ± 0.5
280.15 K, x1 = 0.0436	998.21 ± 0.5
280.15 K, x1 = 0.0609	998.8 ± 0.5
280.15 K, x1 = 0.0827	1000.14 ± 0.5
281.15 K, x1 = 0.002	999.72 ± 0.5
281.15 K, x1 = 0.0033	999.59 ± 0.5
281.15 K, x1 = 0.0047	999.47 ± 0.5
281.15 K, x1 = 0.0072	999.25 ± 0.5
281.15 K, x1 = 0.009	999.12 ± 0.5
281.15 K, x1 = 0.0123	998.84 ± 0.5
281.15 K, x1 = 0.0222	998.29 ± 0.5
281.15 K, x1 = 0.0436	998.03 ± 0.5
281.15 K, x1 = 0.0609	998.53 ± 0.5
281.15 K, x1 = 0.0827	999.78 ± 0.5
282.15 K, x1 = 0.002	999.65 ± 0.5
282.15 K, x1 = 0.0033	999.52 ± 0.5
282.15 K, x1 = 0.0047	999.39 ± 0.5
282.15 K, x1 = 0.0072	999.17 ± 0.5
282.15 K, x1 = 0.009	999.04 ± 0.5
282.15 K, x1 = 0.0123	998.74 ± 0.5
282.15 K, x1 = 0.0222	998.17 ± 0.5
282.15 K, x1 = 0.0436	997.81 ± 0.5
282.15 K, x1 = 0.0609	998.25 ± 0.5
282.15 K, x1 = 0.0827	999.43 ± 0.5
283.15 K, x1 = 0.002	999.56 ± 0.5
283.15 K, x1 = 0.0033	999.43 ± 0.5
283.15 K, x1 = 0.0047	999.3 ± 0.5
283.15 K, x1 = 0.0072	999.07 ± 0.5
283.15 K, x1 = 0.009	998.92 ± 0.5
283.15 K, x1 = 0.0123	998.62 ± 0.5
283.15 K, x1 = 0.0222	998.01 ± 0.5
283.15 K, x1 = 0.0436	997.6 ± 0.5
283.15 K, x1 = 0.0609	997.98 ± 0.5
283.15 K, x1 = 0.0827	999.09 ± 0.5
288.15 K, x1 = 0.002	998.94 ± 0.5
288.15 K, x1 = 0.0033	998.79 ± 0.5
288.15 K, x1 = 0.0047	998.64 ± 0.5
288.15 K, x1 = 0.0072	998.38 ± 0.5
288.15 K, x1 = 0.009	998.21 ± 0.5
288.15 K, x1 = 0.0123	997.87 ± 0.5
288.15 K, x1 = 0.0222	997.12 ± 0.5
288.15 K, x1 = 0.0436	996.36 ± 0.5
288.15 K, x1 = 0.0609	996.47 ± 0.5
288.15 K, x1 = 0.0827	997.2 ± 0.5
288.15 K, x1 = 0.106	998.37 ± 0.5
288.15 K, x1 = 0.1481	1000.83 ± 0.5
288.15 K, x1 = 0.2063	1002.48 ± 0.5
288.15 K, x1 = 0.2513	1001.08 ± 0.5
288.15 K, x1 = 0.3148	995 ± 0.5
288.15 K, x1 = 0.3316	993.72 ± 0.5
288.15 K, x1 = 0.341	992.78 ± 0.5
288.15 K, x1 = 0.4038	983.69 ± 0.51
288.15 K, x1 = 0.4489	976.15 ± 0.51
288.15 K, x1 = 0.4928	968.71 ± 0.51
288.15 K, x1 = 0.5468	959.92 ± 0.51
288.15 K, x1 = 0.5907	952.42 ± 0.51
